Reference: publication PMC3495945, “Org 214007-0: A Novel Non-Steroidal Selective Glucocorticoid Receptor Modulator with Full Anti-Inflammatory Properties and Improved Therapeutic Index” (PLoS ONE, 2012)
pIC50: −log10 of the molar value. Read-outs that look alike come from different tables or passages of the source.

Assays:
Pharmacokinetics in mice = assay type: in vivo, mouse; settings: for half-life: read-out: T1/2 eli (converted); for C0: extrapolated to T=0, read-out: Cmax; for Tmax: female Balb/c mice
Protocol: For each time-point 3 female Balb/c mice are used. Tmax = Time of maximum observed concentration (in case of i.v. administration Tmax = 0 h); time is expressed in hours (h). Cmax = concentration corresponding to Tmax and expressed in nmol/ml, for i.v. dosing Cmax is extrapolated to T=0. T 1/2 eli(mination) (terminal half-life) = ln(2)/λz expressed in h(ours). AUClast = Area under the curve from the time of dosing (Dosing-time) to the last measurable concentration. AUCinf = predicted Area Under the Curve from the time of dosing extrapolated to infinity and expressed in “h*nmol/ml”. Vz = Volume of distribution based on the terminal phase = Dose / λz* AUCinf and expressed inL/kg. Cl = total body clearance = Dose / AUCinf and expressed in L/h/kg. MRTinf = mean residence time (MRT) extrapolated to infinity for non-infusion models, expressed in h. Vss = gives an estimate of the volume of distribution at steady-state and is expressed in L/kg. […] The bioavailability is expressed in %. i.v. = intraveneously, p.o. = per oral

[1] = tested on: coronary artery smooth muscle cells; test: BioMAP assay CASM3C; assay type: cell-based, human; settings: 1 μM, prednisolone = 100%
Protocol: Next, effects of Org 214007-0 on the cytokine release by primary human whole blood cells treated with either LPS or anti-CD28/PMA were tested. […] These assays make use of different types of primary human cells, in this case coronary artery smooth muscle cells and neonatal foreskin fibroblasts, in an inflammatory environment, [28]. […] When all repressed and induced proteins are taken into account, a relative TI value for Org 214007-0 could be deduced of 1.7 in coronary artery smooth muscle cells and of 2.2 in neonatal foreskin fiboblasts.

[2] = Mouse fasting blood glucose; assay type: in vivo; settings: oral daily 28 days; prednisolone 0.5 or 10 mg/kg/day, Org 214007-0 0.17 or 1.5 mg/kg/day; 9 hours fasting
Protocol: Eighteen hours after the last oral treatment and 9 hours after start of starvation, blood samples were taken from the tail vein and directly used for glucose measurements using “One touch Ultra” glucose meter from Lifescan EuroFlash (Lifescan Benelux Beerse, Belgium). The mouse MIDA study was performed as described previously by van Dijk et al., [52]. […] On the third day, mice were cannulated in the right jugular vein. After 7 days of treatment, mice were placed in small Plexiglas cages, which allowed collection of blood samples frequently in freely moving mice. […] During the experiment blood glucose was measured and blood spots for GCMS measurements were collected from tail tips just before the start of the infusion and at hourly intervals. […] Glucose and paracetamol-glucuronic acid (Par-GLcUa) were extracted from blood spot and urine filter papers, respectively, derivatised, and measured by GC-MS, essentially as described previously, [52]. […] From isotope dilution and infusion rates, the flux rates of the following metabolic pathways could be calculated: 1) de novo synthesis of G6P, 2) glucokinase, 3) glucose-6-phosphatase, 4) glycogenolysis, and 5) glycogen synthesis. […]

THP-1 cells = test: THP-1 repression of TNFα/IFNγ-induced MCP-1, IL-6, IL-8 release; assay type: cell-based, human; settings: for pIC50: Homo sapiens, THP-1, TNFα (60 ng/ml)/IFNγ (40 ng/ml); for Max. eff., IL-6 repression / Max. eff., IL-8 repression / Max. eff., MCP-1 repression: THP-1, I/T, prednisolone = 100%
Protocol: After 6 hours total RNA was isolated and further processed for microarray hybridization as described for the HepG2 cells. The data from all microarray experiments have been deposited in the NCBI Gene Expression Omnibus (GEO) under accession number (identifier will be included in proof). […] Expression of FKBP51, MCP-1, IL-6 and IL-8 protein was measured by specific […]; #A[…] [MCP-1], #A[…] [IL-6] and #A[…] [IL-8]) according to the manufacturer manual. […] Expression of FKBP51, DUSP1 and GILZ was measured by Q-PCR according to the same procedure as described for the HepG2 cells. In this case the following primer-pairs were used: for GAPDH: [NT] and [NT]; for FKBP51: [NT] and [NT]; for DUSP1: [NT] and [NT]; for GILZ: [NT] and [NT]. For the evaluation of protein expression, cells were incubated overnight with a whole dose range of compounds. Supernatants were collected to determine cytokine levels and cell lysates were generated by repeated freeze-thaw cycles to measure expression of FKBP51 protein. Expression of FKBP51, MCP-1, IL-6 and IL-8 was measured by specific […]; #A[…] [MCP-1], #A[…] [IL-6] and #A[…] [IL-8]) according to the manufacturer manual. […] Samples were incubated for 60 min at 23 C. […] Plates were measured using an EnVision-Alpha Reader.

[3] = female, Balb/c, mouse, in vivo, iv, 4 umol/kg, 4 μmol/kg i.v.
[4] = female, Balb/c, mouse, in vivo, po, 10 umol/kg, 10 μmol/kg p.o.
[5] = female, Balb/c, mouse, in vivo, iv, 10 umol/kg, 10 μmol/kg i.v.
[6] = female, Balb/c, mouse, in vivo, po, 20 umol/kg, 20 μmol/kg p.o.

In the case of `Cc1nnsc1C(=O)N[C@H]1CCN2c3ccc(C#N)cc3[C@@H](C)c3ccccc3[C@@H]2C1` [Org 214007-0], the Cl (Pharmacokinetics in mice; 10 μmol/kg p.o.) was 6.7 mL/min/kg, the Vz (Pharmacokinetics in mice; 10 μmol/kg p.o.) was 3.2 L/kg and the AUC(0-inf) (Pharmacokinetics in mice; [3]) was 10.8 µM·h. For the same compound, the AUC(0-t) (Pharmacokinetics in mice; [3]) was 10.1 µM·h, the MRT inf (Pharmacokinetics in mice; [3]) was 474 min and the clearance (Pharmacokinetics in mice; [3]) was 6.67 mL/min/kg. For the same compound, the half-life (Pharmacokinetics in mice; [3]) was 384 min, the Vd (Pharmacokinetics in mice; female, Balb/c, mouse, in vivo, iv, 4 umol/kg, 4 μmol/kg i.v., read-out: Vss) was 2.9 L/kg and the Vd (Pharmacokinetics in mice; female, Balb/c, mouse, in vivo, iv, 4 umol/kg, 4 μmol/kg i.v., read-out: Vz) was 3.4 L/kg. The C0 (Pharmacokinetics in mice; female, Balb/c, mouse, in vivo, iv, 4 μmol/kg i.v.) was 2.19 µM, the AUC(0-inf) (Pharmacokinetics in mice; [4]) was 24.2 µM·h and the AUC(0-t) (Pharmacokinetics in mice; [4]) was 23.2 µM·h. It also gave a Cmax (Pharmacokinetics in mice; [4]) of 2.12 µM, an MRT inf (Pharmacokinetics in mice; [4]) of 426 min and a bioavailability (Pharmacokinetics in mice; female, Balb/c, mouse, in vivo, po, 10 umol/kg, 10 μmol/kg p.o., read-out: F (% bioavailability)) of 89.7%. For the same compound, the half-life (Pharmacokinetics in mice; [4]) was 318 min, the Tmax (Pharmacokinetics in mice; mouse, in vivo, po, 10 umol/kg, 10 μmol/kg p.o.) was 30 min and the “Max. eff., induction of serum amyloid A (SAA)” value [1] was 58%. The “fasting blood glucose levels vs vehicle” value [2] was “not affected”, the pIC50 (THP-1 cells; read-out: IC50, IL-6 release) was 8.03 and the pIC50 (THP-1 cells; read-out: IC50, IL-8 release) was 7.96. The pIC50 (THP-1 cells; read-out: IC50, MCP-1 release) was 7.63, the “Max. eff., IL-6 repression” value (THP-1 cells) was 78 (±9) % and the “Max. eff., IL-8 repression” value (THP-1 cells) was 74 (±10) %. For the same compound, the “Max. eff., MCP-1 repression” value (THP-1 cells) was 44 (±8) %.
With `C[C@]12C=CC(=O)C=C1CC[C@@H]1[C@@H]2[C@@H](O)C[C@@]2(C)[C@H]1CC[C@]2(O)C(=O)CO` [prednisolone, reference compound] the Cl (Pharmacokinetics in mice; 20 μmol/kg p.o.) was 30 mL/min/kg, the Vz (Pharmacokinetics in mice; 20 μmol/kg p.o.) was 1.2 L/kg and the AUC(0-inf) (Pharmacokinetics in mice; [5]) was 7.1 µM·h. It also gave an AUC(0-t) (Pharmacokinetics in mice; [5]) of 7.1 µM·h, an MRT inf (Pharmacokinetics in mice; [5]) of 24 min and a clearance (Pharmacokinetics in mice; [5]) of 23.3 mL/min/kg. For the same compound, the half-life (Pharmacokinetics in mice; [5]) was 15.6 min, the Vd (Pharmacokinetics in mice; female, Balb/c, mouse, in vivo, iv, 10 umol/kg, 10 μmol/kg i.v., read-out: Vss) was 0.5 L/kg and the C0 (Pharmacokinetics in mice; female, Balb/c, mouse, in vivo, iv, 10 μmol/kg i.v.) was 18 µM. For the same compound, the AUC(0-inf) (Pharmacokinetics in mice; [6]) was 11 µM·h, the AUC(0-t) (Pharmacokinetics in mice; [6]) was 11 µM·h and the Cmax (Pharmacokinetics in mice; [6]) was 11.5 µM. It also gave an MRT inf (Pharmacokinetics in mice; [6]) of 48 min, a half-life (Pharmacokinetics in mice; [6]) of 24 min and a Tmax (Pharmacokinetics in mice; mouse, in vivo, po, 20 umol/kg, 20 μmol/kg p.o.) of 18 min. The “Max. eff., induction of serum amyloid A (SAA)” value [1] was 100%, the “fasting blood glucose levels vs vehicle” value [2] was “significantly elevated” and the pIC50 (THP-1 cells; read-out: IC50, IL-6 release) was 7.47. The pIC50 (THP-1 cells; read-out: IC50, IL-8 release) was 7.43, the pIC50 (THP-1 cells; read-out: IC50, MCP-1 release) was 7.16 and the “Max. eff., IL-6 repression” value (THP-1 cells) was 100%. The “Max. eff., IL-8 repression” value (THP-1 cells) was 100% and the “Max. eff., MCP-1 repression” value (THP-1 cells) was 100%.
